Ends that are not written are not given here.

From US8227423B2 (priority 2004, dated 2012) come the findings set out here.

The test system of one series is Bacillus subtilis. The series is classed as cell-based.

In the case of RFARKGALRQKNV [Protein kinase C], the “antibacterial effect in time kill assay (CFU)” value in the series on Bacillus subtilis is “no effect”.

For the sequence “TRKKLFHIFHATIRSR [PAD-1.17, TRKKLFHIFHATIRSR]”, in the series on sheep red blood cells, the “detergent-like (lytic) action” value was “did not appear to act as a detergent”.
